Patent publication US4377587A, “Arylamine derivatives and use thereof as microbicides” (Ciba-Geigy Corporation, priority 1980, dated 1983)
≈ marks a conversion by molar mass, not a printed value.

Key:
[1] = test system: Phytophthora infestans; format: in vivo, Phytophthora infestans (on tomato plants); settings: tomato, spray 0.06% active ingredient, infested after 24 hours, evaluated after 5 days at 20° C.
[2] = test system: Pythium debaryanum; experiment: Action on Pythium debaryanum on sugar beets, (a) after soil application; format: in vivo; settings: sugar beet, 20 ppm of active ingredient based on volume of soil, 2-3 weeks at 20°-24° C.
Source text: (§1) Action on Pythium debaryanum on sugar beets
(a) Action after soil application
The fungus is cultivated on carrot chips nutrient solution and added to a mixture of earth and sand. Flower pots are filled with the infected soil, in which sugar beet seeds are then sown. Immediately after sowing, the test preparations formulated as wettable powders are poured in the form of aqueous suspensions over the soil (20 ppm of active ingredient, based on the volume of the soil). The pots are then stood for 2-3 weeks in a greenhouse at 20°-24° C. The soil is kept uniformly moist by gently spraying it with water. The emergence of the sugar beet plants as well as the number of healthy and sick plants are ascertained in evaluating the test.

[3] = test system: Pythium debaryanum; experiment: Action on Pythium debaryanum on sugar beets, (b) after seed dressing application; format: in vivo; settings: sugar beet, seed dressing 0.06%, 2-3 weeks at c. 20° C.
Procedure: as §1
(b) Action after seed dressing application
The fungus is cultivated on carrot chip nutrient solution and added to a mixture of earth and sand. Flower pots are filled with the infected soil and sugar beet seeds which have been treated with the test preparations formulated as seed dressing powders are sown therein (0.06% of one of the compounds of Tables 1 and 2). The pots are then stood in a greenhouse for 2-3 weeks at c. 20° C. The soil is kept uniformly moist by gently spraying it with water. The emergence of the sugar beet plants is ascertained in evaluating the test.

[4] = test system: Podosphaera leucotricha; experiment: Residual-protective action against Podosphaera leucotricha on apples; format: in vivo; settings: apple seedlings, spray 0.06% of active ingredient, evaluated 12 days after infection
Procedure: Residual-protective action against Podosphaera leucotricha on apples
Apple seedlings in the 5-leaf stage are sprayed with a spray mixture (0.06% of active ingredient) prepared from a wettable powder formulation of the active ingredient. After 24 hours the treated plants are infected with a conidia suspension of the fungus and placed in a climatic chamber at 70% relative humidity and 20° C. Evaluation of fungus infestation is made 12 days after infection.

[5] = test system: Phytophthora infestans; format: in vivo, Phytophthora infestans (on tomato plants); settings: tomato, sprayed 0.06% active ingredient 22 hours after infestation, evaluated 5 days after infestation
[6] = test system: Erysiphe graminis; experiment: Action against Erysiphe graminis on barley, residual protective action; format: in vivo, Erysiphe graminis (on barley plants); settings: 0.02% active ingredient sprayed, infected after 3-4 hours, evaluated after 10 days
Procedure: Action against Erysiphe graminis on barley
Residual protective action
Barley plants about 8 cm in height are sprayed with a spray mixture (0.02% of active ingredient) prepared from the active ingredient formulated as a wettable powder. The treated plants are dusted with conidia of the fungus after 3-4 hours. The infected barley plants are then stood in a greenhouse at about 22° C. The extent of the fungus infection is evaluated after 10 days.

[7] = Water solubility; format: physicochemical; settings: 25° C.
Source text: Determination of physico-chemical data
(a) Reduced water solubility

| SMILES | fungus attack compared with untreated control plants (100% attack), residual-protective [1] | emergent plants (fully effective against Pythium pathogens), soil application [2] | emergent plants (fully effective against Pythium pathogens), seed dressing application [3] | fungus attack compared with untreated and infected control plants (100% attack), residual curative [5] | also measured |
| --- | --- | --- | --- | --- | --- |
| COCC(=O)N(c1c(N)cccc1Cl)C(C)C(=O)OC (stereo not shown) [Compound 6] | less than 10% | over 90% | over 90% | less than 10% | fungus attack compared with untreated and infected control seedlings (100% attack) [4]: less than 10% |
| COC(=O)C(C)N(C(=O)CS(C)(=O)=O)c1c(C)ccc(N)c1C (stereo not shown) [Compound 14] | less than 10% |  |  |  |  |
| COCC(=O)N(c1c(C)cc(C)c([N+](=O)[O-])c1C)C(C)C(=O)OC (stereo not shown) [Compound 29] | less than 10% | over 90% | over 90% | less than 10% |  |
| COC(=O)C(C)N(C(=O)C1CCCO1)c1c(C)ccc([N+](=O)[O-])c1C (stereo not shown) [Compound 35] | less than 10% |  |  |  |  |
| COC(=O)C(C)N(C(=O)CS(C)(=O)=O)c1c(C)ccc([N+](=O)[O-])c1C (stereo not shown) [Compound 38] | less than 10% |  |  |  | fungus attack compared with control plants (100% attack) [6]: less than 10% |
| COCC(=O)N(c1c(Cl)cccc1[N+](=O)[O-])C(C)C(=O)OC (stereo not shown) [Compound 57] | less than 10% |  |  |  |  |
| COCC(=O)N(c1c([N+](=O)[O-])ccc(C)c1C)C(C)C(=O)OC (stereo not shown) [Compound 59, N-(1'methoxycarbonylethyl)-N-methoxyacetyl-2,3-dimethyl-6-nitroaniline] | less than 10% | over 90% | over 90% | less than 10% |  |
| CCOCC(=O)N(c1c(C)ccc([N+](=O)[O-])c1C)C(C)C(=O)OC(C)C (stereo not shown) [Compound 73] | less than 10% | over 90% | over 90% |  | fungus attack compared with untreated and infected control seedlings (100% attack) [4]: less than 10% |
| CCOC(=O)C(C)N(C(=O)COC)c1c(C)ccc([N+](=O)[O-])c1C (stereo not shown) [Compound 74] | less than 10% |  |  | less than 10% |  |
| COCC(=O)N(c1c(C)cc([N+](=O)[O-])c(C)c1C)C(C)C(=O)OC (stereo not shown) [Compound 78] | less than 10% |  |  |  |  |
| CCOCC(=O)N(c1c(Cl)ccc(N)c1C)C(C)C(=O)OC (stereo not shown) [Compound 88] | less than 10% |  |  |  |  |
| CCOCC(=O)N(c1cccc([N+](=O)[O-])c1C)C(C)C(=O)OC (stereo not shown) [Compound 104] |  |  |  |  | fungus attack compared with control plants (100% attack) [6]: less than 10% |
| C=CCN(C(=O)COC)c1c(C)ccc([N+](=O)[O-])c1C [Compound 111] | less than 10% |  |  |  |  |
| C#CCN(C(=O)COC)c1c(C)ccc([N+](=O)[O-])c1C [Compound 117] | less than 10% |  |  |  |  |
| C#CCN(C(=O)COCC)c1c(C)ccc([N+](=O)[O-])c1C [Compound 122] | less than 10% |  |  |  |  |
| COC(=O)C(C)N(C(=O)C1CC1)c1ccc([N+](=O)[O-])cc1Cl (stereo not shown) [Compound 138] | less than 10% |  |  |  |  |
| COC(=O)C(C)N(C(=O)C1CC1)c1ccc(N)cc1Cl (stereo not shown) [Compound 139] | less than 10% |  |  |  |  |
| COCC(=O)N(c1c(C)c(C)c([N+](=O)[O-])c(C)c1C)C(C)C(=O)OC (stereo not shown) [Compound 141] | less than 10% |  |  | less than 10% |  |
| CCOCC(=O)N(c1c(C)c(C)c([N+](=O)[O-])c(C)c1C)C(C)C(=O)OC (stereo not shown) [Compound 142] | less than 10% |  |  | less than 10% | fungus attack compared with control plants (100% attack) [6]: less than 10% |
| COC(=O)C(C)N(C(=O)C1CCCO1)c1c(C)c(C)c([N+](=O)[O-])c(C)c1C (stereo not shown) [Compound 144] | less than 10% |  |  |  |  |
| COCC(=O)N(c1c(C)c(C)c(N)c(C)c1C)C(C)C(=O)OC (stereo not shown) [Compound 158] | less than 10% | over 90% | over 90% |  |  |
| CCOCC(=O)N(c1c(C)c(C)c(N)c(C)c1C)C(C)C(=O)OC (stereo not shown) [Compound 159] | less than 10% |  |  |  |  |
| COC(=O)C(C)N(C(=O)COC(C)C)c1c(C)c(C)c(N)c(C)c1C (stereo not shown) [Compound 160] |  | over 90% | over 90% |  |  |
| COC(=O)C(C)N(C(=O)C1CCCO1)c1c(C)c(C)c(N)c(C)c1C (stereo not shown) [Compound 161] | less than 10% |  |  | less than 10% |  |
| COCC(=O)N(c1c([N+](=O)[O-])ccc2ccccc12)C(C)C(=O)OC (stereo not shown) [Compound 400, N-(1'methoxycarbonylethyl)-N-methoxyacetyl-2-nitronaphthylamine] | less than 10% | over 90% | over 90% | less than 10% |  |
| COCC(=O)N(c1c(C)cc([N+](=O)[O-])c2ccccc12)C(C)C(=O)OC (stereo not shown) [Compound 606] | less than 10% | over 90% | over 90% | less than 10% | fungus attack compared with untreated and infected control seedlings (100% attack) [4]: less than 10% |
| COC(=O)C(C)N(C(=O)C1CCCO1)c1c(C)cc([N+](=O)[O-])c2ccccc12 (stereo not shown) [Compound 607] | less than 10% | over 90% | over 90% |  |  |
| COCC(=O)N(c1ccc([N+](=O)[O-])c2ccccc12)C(C)C(=O)OC (stereo not shown) [Compound 611] | less than 10% |  |  | less than 10% |  |
| COCC(=O)N(c1c(C)cccc1C)[C@@H](C)C(=O)OC [Metalaxyl, N-(2,6-dimethylphenyl)-N-(2'-methoxyacetyl)alanine methyl ester, reference compound] |  |  |  |  | solubility [7]: 800 µg/mL (≈ 2860 µM) |
